We go through seven compounds from PMC3524758, “Development and evaluation of a novel radioiodinated vesamicol analog as a sigma receptor imaging agent” (EJNMMI Research, 2012).

One series relates to sigma receptors. Put plainly: Blocking studies with excess sigma ligand in DU-145 tumor-bearing mice. Type of series: in vivo. The conditions noted are these: 10 μmol/kg i.v. co-injection, 1-h post-injection. As to the method: At 1-h post-injection, the mice were killed, and biodistribution experiments were conducted as described above.
Series [1] has as its target T1, sigma-1 receptor (Rattus norvegicus, UniProt Q9R0C9).
T1 construct: from tissue; host or cells: rat brain without cerebellum (male Sprague-Dawley rats)
Also noted: method as in PMID 15670917. The conditions noted are these: cited from earlier work.

The next series deals with T2, sigma-2 receptor (Rattus norvegicus, UniProt Q5U3Y7).
T2 construct: from tissue; host or cells: rat liver (male Sprague-Dawley rats)
T2 sequence (Q5U3Y7 1-176): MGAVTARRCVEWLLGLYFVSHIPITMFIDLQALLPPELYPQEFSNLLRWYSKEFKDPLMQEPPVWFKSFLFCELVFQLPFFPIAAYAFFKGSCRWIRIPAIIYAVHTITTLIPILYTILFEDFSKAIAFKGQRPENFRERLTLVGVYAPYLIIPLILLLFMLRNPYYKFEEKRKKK
In words: Sigma-2 receptor competitive binding assay ([3H]DTG, rat liver membranes, (+)-pentazocine mask). As for the experimental part: (§1) Animal experimental protocols were approved by the Committee on Animal Experimentation of Kanazawa University. Experiments with animals were conducted in accordance with the Guidelines for the Care and Use of Laboratory Animals of Kanazawa University. The animals were housed with free access to food and water at 23°C with a 12-h alternating light/dark schedule. The rat brain and liver membranes for binding experiments were prepared from rat brains without cerebellum and rat liver in male Sprague–Dawley rats (200 g, Japan SLC, Inc., Hamamatsu, Japan), respectively, using a method described previously.
A sigma-2 receptor binding assay was performed using the following method. […] The incubated samples were treated in the same manner as described for the sigma-1 receptor binding assays.

Series [2] concerns the target T1, sigma-1 receptor. In words: Sigma-1 receptor competitive binding assay ((+)-[3H]pentazocine, rat cerebral membranes). As for the experimental part:
as §1
A sigma-1 receptor binding assay was performed using the following method. […] The incubated samples were quickly diluted with 5 mL of ice-cold Tris–HCl (pH 7.8) buffer followed by rapid filtration through Whatman Grade GF/B glass fiber filters (GE Healthcare UK Ltd., Amersham, UK) presoaked in 0.5% polyethylenimine using a cell harvester (Brandel, Gaithersburg, MD, USA). Filters were washed three times with 5 mL of ice-cold buffer. […] Radioactivity retained on the filters was measured with a liquid scintillation counter (LSC-5100; Aloka, Tokyo, Japan).

Details of series [3]: method as in PMID 19659515. The conditions noted are these: cited from earlier work.
Series [4] deals with DU-145 prostate cancer cell lines. Put plainly: Cellular uptake and washout experiments in vitro. Type of series: cell-based. The conditions noted are these: DU-145 cells. As to the method: Radiotracer uptake studies were performed in monolayer cultures of DU-145 prostate cancer cell lines, which were obtained from ATCC (Manassas, VA, USA). Cells were grown in cell culture dishes in RPMI 1640 medium with phenol red, 10% heat-inactivated fetal bovine serum (FBS), 100-μg/mL glutamine, 100-units/mL penicillin, and 100-μg/mL streptomycin at 37°C in a humidified atmosphere of 95% air and 5% carbon dioxide. Cells were plated on 6-well tissue culture plates (4 × 10^5 cells/well) for 24 h before the study and incubated at 37°C in the culture medium without FBS containing (+)-^125I]IV-OH or (+)-^125I]pIV (3.7 kBq/well), which was prepared by a method of a previous study for different time intervals (15, 30, 60, and 120 min). For the washout experiment, tumor cells exposed to a medium containing (+)-^125I]IV-OH or (+)-^125I]pIV for 60 min were washed with phosphate buffered saline (PBS) and incubated in fresh (nonradioactive) medium without FBS at 37°C for 15, 30, and 60 min. […] After incubation, cells were washed twice with ice-cold PBS and resolved by adding 0.5 mL of 1-M NaOH. The solutions were then collected and the radioactivity was determined with an auto well gamma counter (ARC-380; Aloka) and corrected for background radiation. The radioactivity of each sample was normalized for the protein level, which was determined using a Protein Assay Bicinchoninate Kit (Nacalai Tesque).

[5] abbreviates: rat liver membranes, 5-nM [3H]DTG, 1-μM (+)-pentazocine mask, Ki from IC50, means (SEM) of three or four experiments.
[6] abbreviates: rat cerebral membranes, 5-nM (+)-[3H]pentazocine, Ki from IC50, means (SEM) of three or four experiments.

Where two headings read alike, the source gives them in different places.

T1 sequence (Q9R0C9 whole entry): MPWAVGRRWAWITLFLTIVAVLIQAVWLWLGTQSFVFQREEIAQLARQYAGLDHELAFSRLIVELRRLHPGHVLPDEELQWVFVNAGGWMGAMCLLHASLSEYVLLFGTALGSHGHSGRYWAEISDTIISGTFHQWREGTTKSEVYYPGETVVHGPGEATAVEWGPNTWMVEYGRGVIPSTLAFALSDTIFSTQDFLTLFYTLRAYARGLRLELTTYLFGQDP

With `COc1ccc(CCN2CCN(CCCc3ccccc3)CC2)cc1OC` [SA4503], in the series with sigma receptors, the “effect of co-injected ligand on brain to blood uptake ratio of (+)-[^125I]IV-OH” value is reported as “significant decrease”, the “effect of co-injected ligand on liver uptake of (+)-[^125I]IV-OH” value was “did not inhibit”, the “effect of co-injected ligand on pancreas to blood uptake ratio of (+)-[^125I]IV-OH” value is “significant decrease” and the “effect of co-injected ligand on tumor to blood uptake ratio of (+)-[^125I]IV-OH” value is on record as “significant decrease”.
The Ki is the dissociation constant of the complex between target and ligand, obtained from inhibition or displacement. On to `O[C@@H]1CCCCC1N1CCC(c2ccc(I)cc2)CC1` (single isomer, unassigned; (+)) [(+)-pIV, (+)-2-[4-(4-iodophenyl)piperidino]cyclohexanol], for which, in the series on sigma receptors, the “effect of co-injected ligand on brain to blood uptake ratio of (+)-[^125I]IV-OH” value is “significant decrease”, the “effect of co-injected ligand on pancreas to blood uptake ratio of (+)-[^125I]IV-OH” value was “significant decrease” and the “effect of co-injected ligand on tumor to blood uptake ratio of (+)-[^125I]IV-OH” value is “significant decrease”. Besides, the Ki at sigma-1 receptor [1] is 1.3 nM.
`Oc1ccc(C2CCN(C3CCCC[C@H]3O)CC2)cc1I` (single isomer, unassigned; (+)) [(+)-IV-OH, (+)-4-[1-(2-hydroxycyclohexyl)piperidine-4-yl]-2-iodophenol]: the values for the Ki at sigma-2 receptor and on sigma-1 receptor [2] were 147 nM and 22.8 nM, respectively. Further, the “selectivity for sigma-1 subtype over sigma-2” value on sigma-1 receptor [2] (in vitro binding assay) is on record as “approximately 6.4 fold”.
On sigma-2 receptor (setting [5]), (+)-Vesamicol [reference compound] returned an inhibitory constant (Ki) of 159 nM.
Consider `Oc1ccc(C2CCN(C3CCCCC3O)CC2)cc1I` (single isomer, unassigned; (-)) [(−)-IV-OH, (−)-enantiomer of 4-[1-(2-hydroxycyclohexyl)piperidine-4-yl]-2-iodophenol], for which the Ki on sigma-2 receptor (setting [5]) came to 166 nM; at sigma-1 receptor [2] (setting [6]), 45.5 nM.
The term log P denotes the decadic logarithm of the partition coefficient of the neutral form, usually between octanol and water. For `O[C@H]1CCCC[C@@H]1N1CCC(c2ccc([125I])cc2)CC1` [(+)-[^125I]pIV, reference compound], the “log P” value in series [3] is reported as 2.08. The “time at which uptake was saturated” value in series [4] is on record as 30 min. Besides, the “accumulation in the presence of haloperidol” value in series [4] (haloperidol 10 μM in culture medium) was “remarkably lessened”. For the same compound, in series [4] (within 60 min after medium replacement, specific uptake), the “intracellular radioactivity released into the supernatant” value was 44%.
As for `Oc1ccc(C2CCN(C3CCCCC3O)CC2)cc1` (single isomer, unassigned; (+)) [(+)-Ves-OH], the Ki at sigma-2 receptor (setting [5]) came out at 97.2 nM; on sigma-1 receptor [2] (setting [6]), 179 nM.
